According to BindingDB's records for doi:10.1002/cbic.201700052 (University of Illinois, 2017):

Experiments:
Test in all cases: In Silico Screening
[1] = target: T1, 4-hydroxy-3-methylbut-2-enyl diphosphate reductase (Aquifex aeolicus (strain VF5), UniProt O67625)
T1 sequence (O67625 whole entry): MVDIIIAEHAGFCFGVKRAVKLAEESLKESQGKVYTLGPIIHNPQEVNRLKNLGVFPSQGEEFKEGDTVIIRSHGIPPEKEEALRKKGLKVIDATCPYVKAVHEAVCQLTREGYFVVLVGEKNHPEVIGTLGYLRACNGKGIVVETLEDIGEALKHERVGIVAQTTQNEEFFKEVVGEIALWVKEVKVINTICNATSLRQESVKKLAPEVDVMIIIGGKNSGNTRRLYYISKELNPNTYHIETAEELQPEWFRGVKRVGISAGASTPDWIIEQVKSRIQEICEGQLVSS
Source text: (§1) In order to find new inhibitors, we carried out in silico screening of AaIspH and EcIspH using ZINC and National Cancer Institute (NCI) libraries and Glide docking, essentially as previously described.[Lindert et al., Chem. Biol. Drug Des., 81:742-748]

[2] = target: T2, 4-hydroxy-3-methylbut-2-enyl diphosphate reductase (Escherichia coli (strain K12), UniProt P62623)
T2 sequence (P62623 whole entry): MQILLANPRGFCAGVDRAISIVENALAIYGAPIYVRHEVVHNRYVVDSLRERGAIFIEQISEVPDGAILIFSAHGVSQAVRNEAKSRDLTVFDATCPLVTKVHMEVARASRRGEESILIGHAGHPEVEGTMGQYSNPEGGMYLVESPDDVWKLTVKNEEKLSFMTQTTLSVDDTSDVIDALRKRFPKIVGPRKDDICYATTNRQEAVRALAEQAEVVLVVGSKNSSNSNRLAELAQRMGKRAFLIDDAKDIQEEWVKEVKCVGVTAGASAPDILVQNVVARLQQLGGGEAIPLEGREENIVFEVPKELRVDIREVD
Source text: as §1

[3] = target: T3, 4-hydroxy-3-methylbut-2-enyl diphosphate reductase (Pseudomonas aeruginosa (strain ATCC 15692 / PAO1 / 1C / PRS 101 / LMG12228), UniProt Q9HVM7)
T3 sequence (Q9HVM7 whole entry): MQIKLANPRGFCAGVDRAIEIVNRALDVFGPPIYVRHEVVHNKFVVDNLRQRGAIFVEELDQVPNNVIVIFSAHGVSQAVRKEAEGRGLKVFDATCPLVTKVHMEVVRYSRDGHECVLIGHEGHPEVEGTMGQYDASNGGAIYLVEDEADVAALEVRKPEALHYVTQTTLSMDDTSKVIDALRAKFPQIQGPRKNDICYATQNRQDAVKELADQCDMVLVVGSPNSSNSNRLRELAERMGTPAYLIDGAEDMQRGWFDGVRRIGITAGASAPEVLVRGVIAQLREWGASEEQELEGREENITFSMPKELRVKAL
Source text: as §1

| SMILES | Ki [1] [nM] | Ki [2] [nM] | Ki [3] [nM] |
| --- | --- | --- | --- |
| Nc1ccc2c(c1)CC1(C(=O)NC(=O)NC1=O)C1CN(Cc3ccccc3)CCN21 (stereo not drawn) [8-Amino-3-benzyl-2,3,4,4 a-tetrahydro-1,2'H,6H-spiro[pyrazino[1,2-a]quinoline-5,5'-pyrimidine]-2',4',6'(1'H,3'H)-trione] | 700 | 3000 | – |
| CCN1CCN2c3ccc(N)cc3CC3(C(=O)NC(=O)NC3=O)C2C1 (stereo not drawn) [IspH inhibitor, 8] | – | – | 500 |
